Read-outs that look alike come from different tables or passages of the source.
Experiments:
[1] = system: A673 cells; test: siRNA silencing of EWS-FLI1 followed by auranofin treatment (CellTiter-Blue); assay type: cell-based; conditions: then auranofin 72 h
Method: To knock down the expression of EWS-FLI1 in A673 Ewing cells, we designed two different siRNAs, corresponding to the sequence within the 3′ downstream half of EWS-FLI1 mRNA (siFLI1-#3) and the sequence of the breakpoint of EWS-FLI1 type I mRNA (siBPEF1) respectively. To examine whether the siRNAs could abolish the expression of EWS-FLI1, the effects of siRNAs on the protein levels of EWS-FLI1 were analyzed by western blot (see Supplementary methods).
(B) Cell viability was assessed by the CellTiter Blue assay in A673 cells treated by siControl, siFLI1-#3 or siBPEF1 for 48 h then followed by the incubation of auranofin ranging from 7.8 nmol/L to 1 μmol/L for 72h. Data are presented as the mean ± SD of three independent experiments performed in triplicate. (C) In vivo studies of auranofin, ganetespib and the combination treatment in an EWS xenograft mice model (n = 12 per group). The percentage of survival rate in control, auranofin treated, ganetespib treated, and auranofin in combination with ganetespib treated groups.
Predict drugs using three computational resolved on the 4–20% Mini-PROTEAN TGXTM approaches Precast Gels (Bio-Rad, Hercules, CA) and transferred onto PVDF membranes (Bio-Rad, Hercules, CA).
Disease-based approach: We used the disease Immunoblotting was done with the following antibodies: signature to query the drug expression database and rabbit polyclonal anti-FLI1 (C-19) (Santa Cruz selected the top 20 negatively scored hits. siRNA-based Biotechnology, Dallas, TX), mouse monoclonal anti-approach: We used the siEWS-FLI1 mediated signature β-actin (Sigma, St. Louis, MO), HRP conjugated goat to query the drug expression database and selected the top anti-rabbit IgG (Cell Signaling, Danvers, MA) and 20 positively scored hits. […] Membranes were developed using ECL database and select the top 20 negatively scored hits. […]
(Lafayette, CO). […] After 72 h of auranofin treatment, cell viability was evaluated using the 18. […]

[2] = Dissociation of auranofin in plasma, whole blood and simulated gastric fluid; assay type: in vitro ADME; conditions: unpublished results
[3] = system: human lymphocyte; set-up: method as in ref 19 (a number printed in a supplementary file, which may have a reference list of its own: not looked up in the article's list); conditions: 0.1 - 1.0 µg auranofin/mL; cited from earlier work
[4] = system: natural killer cells; set-up: method as in ref 19 (a number printed in a supplementary file, which may have a reference list of its own: not looked up in the article's list); conditions: cited from earlier work
[5] = system: rate leukocytes; set-up: method as in ref 19 (a number printed in a supplementary file, which may have a reference list of its own: not looked up in the article's list); conditions: 10^-3 to 10^-6M; cited from earlier work
[6] = set-up: method as in ref 19 (a number printed in a supplementary file, which may have a reference list of its own: not looked up in the article's list); conditions: dogs, 0.6 - 1.2 mg auranofin/kg p.o.; cited from earlier work

With `CC(=O)OC[C@H]1O[C@@H]([S-])[C@H](OC(C)=O)[C@@H](OC(C)=O)[C@@H]1OC(C)=O.CCP(CC)CC.[Au+]` [Auranofin, auranofin] the IC50 ([1]; siBPEF1 48 h, read-out: IC50 (siBPEF1)) was over 1000 nM, the IC50 ([1]; siControl 48 h, read-out: IC50 (siControl)) was 270 ± 20 nM and the IC50 ([1]; siFLI1-#3 48 h, read-out: IC50 (siFLI1-#3)) was over 1000 nM. The “stability in plasma and whole blood ex vivo and simulated gastric fluid in vitro” value [2] was “immediately and completely dissociates”, the phytohemagglutinin-induced mitogenesis [3] was “inhibited” and the “activity of natural killer cells” value ([4]; high concentrations, 1.0 - 2.5 µg auranofin/mL) was “inhibited”. The “activity of natural killer cells” value ([4]; low concentrations, 0.125 - 0.5 µg auranofin/mL) was “stimulated”, the “particle-stimulated lysosomal enzyme release” value [5] was “significantly reduced” and the antidiuretic effect [6] was “not in dogs”.
